EC50 data for 14 compounds are collected here from US6583179B2, “Substituted aminoalkylamide derivatives as antagonists of follicle stimulating hormone” (Ortho-McNeil Pharmaceutical, Inc., priority 1999, dated 2003).

The target of one assay is T1, human FSH receptor (Homo sapiens, UniProt P23945).
T1 construct: expressed in transfected cells; host or cells: Chinese Hamster Ovary cells (K-1; ATCC), line rhFSHR-cLUC
T1 sequence (P23945 18-695): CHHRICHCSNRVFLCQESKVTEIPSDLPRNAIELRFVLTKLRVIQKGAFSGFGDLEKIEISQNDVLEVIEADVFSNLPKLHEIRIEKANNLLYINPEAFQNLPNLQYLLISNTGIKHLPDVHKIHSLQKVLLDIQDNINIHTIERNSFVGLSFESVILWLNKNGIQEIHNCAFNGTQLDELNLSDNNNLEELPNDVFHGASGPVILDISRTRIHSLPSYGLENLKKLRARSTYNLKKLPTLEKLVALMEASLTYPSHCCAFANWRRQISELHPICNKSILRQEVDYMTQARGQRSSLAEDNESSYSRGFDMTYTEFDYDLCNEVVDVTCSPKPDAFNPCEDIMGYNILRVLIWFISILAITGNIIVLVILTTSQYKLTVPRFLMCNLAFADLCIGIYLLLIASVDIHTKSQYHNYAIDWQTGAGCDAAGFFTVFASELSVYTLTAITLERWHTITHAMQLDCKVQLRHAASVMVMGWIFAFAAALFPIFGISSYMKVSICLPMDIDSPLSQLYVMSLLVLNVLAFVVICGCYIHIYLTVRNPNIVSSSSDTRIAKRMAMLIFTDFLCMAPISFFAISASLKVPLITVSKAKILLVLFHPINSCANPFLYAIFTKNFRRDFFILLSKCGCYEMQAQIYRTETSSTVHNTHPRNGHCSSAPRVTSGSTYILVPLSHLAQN
The experiment in a line: hFSHR CHO cAMP assay (rhFSHR-cLUC cells, FSH-stimulated cAMP, radioimmunoassay). It is filed as cell-based. The note with it: inhibition of cAMP produced by EC70 dose of FSH (4.85 nM); maximum concentration 50 μM. The text has this: Minimum Essential Medium-Alpha (MEM-alpha), fetal bovine serum (FBS), penicillin, streptomycin, geneticin, trypsin-EDTA, Hanks' Balanced Salt Solution (no Calcium chloride, Magnesium chloride, Magnesium sulfate, or phenol red; Ca-Mg free HBSS) were purchased from Gibco BRL (Gaithersburg, Md.). The cells used for the FSH bioassay (rhFSHR-cLUC) were Chinese Hamster Ovary cells (K-1; ATCC) stably transformed with human FSH receptor (pSVK-FSHr) and a cAMP luciferase reporter gene (responsive CGα-180LUC). Follicle Stimulating Hormone (Metrodin; Fertinex) was purchased from Serono, Ltd. (Norwell, Mass.).
The rhFSHR-cLUC cell cultures were maintained in MEM-Alpha supplemented with 10% heat-inactivated FBS (HIFBS), 100 U/ml penicillin, 100 μg/mL streptomycin, and included 0.1 g/L geneticin for stable cell selection.
Forty-eight hours after the cells were plated in sterile 96-well culture plates (Corning, Corning, N.Y.) the spent media was removed and 50 μl assay media (modified growth media with 2% HIFBS) containing 2 mM IBMX (3-isobutyl-1-methyl-xanthine) was added to the cells. Compounds (25 μl) in the appropriate concentration were added followed 5 minutes later by an EC70 dose of FSH (25 μl; 160 ng/ml; 4.85 nM). After 10 minutes @ 22.5° C. (room temperature) the reaction was terminated by addition of 25 μL 0.5 N hydrochloric acid to each well. The amount of cAMP produced was measured by radioimmunoassay in a FlashPlate (DuPont, Boston, Mass.). To each flash plate 60 μL flash plate buffer was added followed by 40 μL acidified cell sample or cAMP standard, followed with the addition of 100 μl ^125l-cAMP trace. The FlashPlates were sealed, incubated overnight @ room temperature, and counted in a Packard TopCount (Packard Instrument Co., Meriden, Conn.). The cAMP radioimmunoassay results were calculated using DPM conversion and log-logit transformation of % binding (Excel program).
(§1) Test compounds were solubilized in 30% dimethyl sulfoxide (DMSO) at a concentration of 10 mM before diluting to appropriate concentrations in assay medium. The final DMSO concentration in the treated cells and in the control cells was 0.75%.
For individual experiments, a set of samples were tested including a vehicle control (assay buffer), a reference compound (hFSH) at a range of concentrations designed to elicit a minimal to maximal response, and several concentrations of test compounds together with an EC70 concentration of standard (hFSH challenge). Each compound was performed in duplicates for the primary evaluation and quadruplicates for the dose-ranging experiments. The cAMP radioimmunoassay raw data (pmol) were calculated to provide average pmol cAMP produced/ml and the percent inhibition was calculated as shown below.
% Inh=[1−(Avg.pmoltest compound+standard)/(Avg.pmolstandard)]×100
EC50 values were calculated from an analysis of the concentration-inhibition data using a linear analysis of the data transformed to a log-logit format.

Another assay concerns Rat Granulosa Cell. Kind of assay: Rat granulosa cell FSH-stimulated cAMP production. It is filed as cell-based. The note with it: inhibition of cAMP produced by EC70 dose of FSH (1.4 nM), maximum concentration 50 μM. The method, then:
Insulin, diethylstilbesterol, androstenedione, forskolin and DMSO were purchased from Sigma (St. Louis, Mo.). Fungizone, penicillin/streptomycin, charcoal-treated heat inactivated fetal bovine serum (CT-HI-FBS) and Dulbecco's Modified Eagle Medium:Hams F12 medium containing 15 mM Hepes and L-glutamine (DMEM:F12), were purchased from GIBCO BRL (Grand Island, N.Y.).
Ovine FSH (NIADDK-oFSH-17; FSH potency=20 NIH-FSH-S1 U/mg; LH contamination=0.04 times NIH-LH-S1) was received from Ogden Bioservices Corporation, Rockville, Md. Human FSH (Fertinex), was purchased from Serono Pharmaceutical (Framingham, Mass.). Human chorionic gonadotropin (hCG) was purchased from Sigma (St Louis, Mo.).
Immature intact female rats (Wistar-derived strain; 21-23 days old) were implanted with a single pellet (Innovative Research of America, Sarasota, Fla.) containing 2.5 mg diethylstilbesterol (DES) for 3 days. On the third day, the animals were sacrificed, the ovaries were removed, and the granulosa cells were isolated essentially as described in Haynes-Johnson et al., Biol. Reprod., 61 (1), 147-153, (1999). Granulosa cells were plated at a density of 300,000 cells per ml with 0.2 ml added to each well of 96 well culture dishes (Corning, N.Y.). Cultures were incubated at 37° C. in a humidified incubator (95% air, 5% CO2) overnight (18 hours).
Androstenedione (100,000X) was prepared by dissolving the steroid in 100% ethanol, and was subsequently diluted to a final concentration of 10^−7M containing 0.1% ethanol in assay media. The assay media was serum-free, DES-free, insulin-free media, prepared by adding 5 mL pen-strep,1.5 mL fungizone and 5 μL androstenedione to 493.5 mL DMEM F-12 media.
as §1
Test plates containing the granulosa cells were preincubated for 18 hours at 37° C. with 95% air, 5% CO2, 100% humidity. The spent media was removed and 50 μl assay media (DMEM:F12) containing 2 mM IBMX (3-isobutyl-1-methyl-xanthine) was added to the cells. Compounds (25 μl) in the appropriate concentration were added followed 5 minutes later by an EC70 dose of FSH (25 μl; 50 ng/ml; 1.4 nM). After 30 minutes @ 22.5° C. (room temperature) the reaction was terminated by addition of 25 μL 0.5 N hydrochloric acid to each well. The amount of cAMP produced was measured by radioimmunoassay in a FlashPlate (DuPont, Boston, Mass.). To each flash plate 60 μL flash plate buffer was added followed by 40 μL acidified cell sample or cAMP standard, followed with the addition of 100 μl ^125l-cAMP trace. The FlashPlates were sealed, incubated overnight @ room temperature, and counted in a Packard TopCount (Packard Instrument Co., Meriden, Conn.). The cAMP radioimmunoassay results were calculated using DPM conversion and log-logit transformation of % binding (Excel program).

A word on the EC50: it is the concentration needed to bring the measured effect to its halfway point. For `COc1ccccc1CCN(CC(=O)NCc1ccc(CN)cc1)S(=O)(=O)c1ccc(Cl)s1` [Compound 114], the half-maximal effective concentration (EC50) on human FSH receptor was 9780 nM; in the assay with Rat Granulosa Cell, 8970 nM.

As to `COc1ccccc1CCN(CC(=O)NCC1CCC(CN)CC1)S(=O)(=O)c1ccc(-c2cccc(C(F)(F)F)c2)cc1` (stereo not shown) [Compound 29], the values for the EC50 on human FSH receptor and in the assay on Rat Granulosa Cell were 3090 nM and 2060 nM, respectively.

For `C[C@@H](CN(CC(=O)NCc1ccc(CN)cc1)S(=O)(=O)c1ccc(-c2cccc(F)c2)cc1)c1ccccc1` [Compound 203], the figures for the EC50 at human FSH receptor and in the assay on Rat Granulosa Cell were 80 nM and 60 nM, respectively.

Consider `COc1ccccc1CCN(CC(=O)NCC1CCC(CN)CC1)S(=O)(=O)c1ccc(-c2ccccc2OC)cc1` (stereo not shown) [Compound 33], for which the EC50 on human FSH receptor was 420 nM; in the assay on Rat Granulosa Cell, 180 nM.

In the case of `COc1cccc(-c2ccc(S(=O)(=O)N(CCc3ccccc3OC)CC(=O)NCc3ccc(CN)cc3)cc2)c1` [Compound 16], the EC50 came to 1130 nM on human FSH receptor and 510 nM with Rat Granulosa Cell.

On to `COc1ccccc1CCN(CC(=O)NCC1CCC(CN)CC1)S(=O)(=O)c1ccc(-c2ccccc2C)cc1` (stereo not shown) [Compound 32], for which the concentration for a half-maximal effect (EC50) at human FSH receptor came out at 310 nM; in the assay with Rat Granulosa Cell, 160 nM.

As to `C[C@H](CN(CC(=O)NCc1ccc(CN)cc1)S(=O)(=O)c1ccc(-c2ccccc2Cl)cc1)c1ccccc1` [Compound 208], the EC50 stood at 60 nM at human FSH receptor and 40 nM with Rat Granulosa Cell.

Take `COc1cccc(CN(CC(=O)NCC2CCC(CN)CC2)S(=O)(=O)c2ccc(-c3cccc(OC)c3)cc2)c1` (stereo not shown) [Compound 24]: the concentration giving a half-maximal response (EC50) at human FSH receptor amounted to 2330 nM; in the assay on Rat Granulosa Cell, 1070 nM.

Turning to `COc1ccccc1CCN(CC(=O)NCC1CCC(CN)CC1)S(=O)(=O)c1ccc(-c2ccccc2Cl)cc1` (stereo not shown) [Compound 31], the EC50 stood at 910 nM on human FSH receptor and 1970 nM in the assay on Rat Granulosa Cell.

With `COc1ccccc1CCN(CC(=O)NCc1ccc(CN)cc1)S(=O)(=O)c1ccc(-c2ccccc2C)s1` [Compound 272], the half-maximal effective concentration (EC50) at human FSH receptor was found to be 550 nM; in the assay with Rat Granulosa Cell, 600 nM.

Take `COc1ccccc1CCN(CC(=O)NC1CCC(N)CC1)S(=O)(=O)c1ccc(-c2ccccc2C)cc1` (stereo not shown) [Compound 94]: the EC50 was determined as 34500 nM on human FSH receptor and 8910 nM in the assay with Rat Granulosa Cell.

For `COc1ccccc1CN(CC(=O)NCC1CCC(CN)CC1)S(=O)(=O)c1ccc(-c2cnc(SC)nc2)s1` (stereo not shown) [Compound 73], the 50% effective concentration (EC50) at human FSH receptor is 4950 nM; with Rat Granulosa Cell it was 1450 nM.

Regarding `COc1ccccc1CCN(CC(=O)NCc1ccc(CN)cc1)S(=O)(=O)c1ccc(-c2cccc(F)c2)cc1` [Compound 14], the EC50 on human FSH receptor was determined as 740 nM; in the assay on Rat Granulosa Cell, 1560 nM.

As to `Cc1ccccc1-c1ccc(S(=O)(=O)N(CC(=O)NCC2CCCC(CN)C2)C[C@H](C)c2ccccc2)cc1` (stereo partly shown) [Compound 384], the concentration for a half-maximal effect (EC50) at human FSH receptor turned out to be 270 nM; in the assay on Rat Granulosa Cell, 80 nM.
